# Patent US11247998B2, “Piperazine heteroaryl derivative, preparation method therefor and use of same in medicine” (priority 2017, dated 2022)
# What was measured:
# [1] = Pharmacokinetics assay in rats after intragastrical administration (LC/MS/MS of plasma); format: in vivo; details: both sexes, rat, plasma, po, SD rats, 2 mg/kg; for Vd/F: read-out: Apparent distribution volume Vz/F; for AUC: read-out: Area under curve AUC; for bioavailability: read-out: Bioavailability (%) F %; for CL/F: read-out: Clearance CLz/F; for half-life: read-out: Half-life T1/2 (converted); for Cmax: read-out: Plasma concentration Cmax; for MRT: read-out: Residence time MRT
# Experimental: Pharmacokinetics assay of the compound of the present invention
# Rats were used as test animals. The drug concentration in plasma at different time points was determined by LC/MS/MS method after intragastrical administration of the compound of Example 1, the compound of Example 2, the compound of Example 4, the compound of Example 6, the compound of Example 7, the compound of Example 11, the compound of Example 39, the compound of Example 42, the compound of Example 44, the compound of Example 45 and the compound of Example 47 to rats. The pharmacokinetic behavior and property of the compound of the present invention were studied and evaluated in rats.
# 44 Healthy adult SD rats (half male and half female, 4 rats/group) were purchased from Shanghai Jiesijie Laboratory Animal Co., LTD, with Certificate No.: SCXK (Shanghai) 2013-0006.
# A certain amount of the test compound was weighed, and added with 5% by volume of DMSO, 5% by volume of tween 80 and 90% by volume of normal saline to prepare a 0.2 mg/mL colorless, clear and transparent solution.
# After an overnight fast, SD rats were administrated intragastrically with the test compound at an administration dose of 2.0 mg/kg and an administration volume of 10.0 mL/kg.
# The rats were intragastrically administrated the compound of Example 1, the compound of Example 2, the compound of Example 4, the compound of Example 6, the compound of Example 7, the compound of Example 11, the compound of Example 39, the compound of Example 42, the compound of Example 44, the compound of Example 45 and the compound of Example 47. 0.1 ml of blood was taken from the orbit before administration and at 0.5, 1.0, 2.0, 4.0, 6.0, 8.0, 11.0 and 24.0 hours after administration. The samples were stored in heparinized tubes, and centrifuged for 10 minutes at 3500 rpm to separate the blood plasma. The plasma samples were stored at −20° C. The rats were fed two hours after administration.
# The content of the test compound in the plasma of rats after intragastrical administration of the test compound at different concentrations was determined: 25 μL of rat plasma at each time after administration was taken, added with 40 μL of the internal standard solution of camptothecin (100 ng/mL) and 200 μL of acetonitrile, vortex-mixed for 5 minutes, and centrifuged for 10 minutes (4000 rpm). 0.2 μL of the supernatant was taken from the plasma samples for LC/MS/MS analysis.
# [2] = tested on: HBV DNA replication in HepG2.2.15 cells; assay: In vitro anti-HBV activity test (quantitative assay of intracellular HBV DNA), HepG2.2.15 cells, quantitative PCR; format: cell-based, hepatitis B virus (HBV); details: Hepatitis B virus, HBV DNA by quantitative PCR; for EC50: compound treatment Day 2 to Day 8; for Emax: read-out: Emax (effect value of the compound to maximally inhibit HBV DNA replication)
# Experimental: In vitro anti-HBV activity test of the compound of the present invention (quantitative assay of intracellular HBV DNA)
# HepG2.2.15 cell is a stable expression cell line that has integrated HBV genome.
# Virus particles containing HBV DNA can be synthesized by replication, transcription and encapsidation in the cells, and then secreted. In this study, the quantitative analysis of HBV DNA produced by HepG2.2.15 in vitro proliferation was carried out by quantitative PCR method, thereby determining the activity of the compound of the present invention on inhibiting the HBV DNA replication by inhibiting the assembly of HBV capsid protein.
# HepG2.2.15 cells were cultured in DMEM/high glucose medium (10% FBS, […] G418) and passaged every three days. On the day of the experiment, a cell suspension was prepared with fresh cell culture medium, and incubated in a 96-well plate (Corning, #3599) at 40,000 cells/well, at 5% carbon dioxide, 37° C. On Day 2, the compound was dissolved in pure DMSO at a concentration of 20 mM, and then the first concentration of 2 mM was formulated with DMSO, and diluted in 4-fold concentration gradient to 8 concentrations. A control well was added with 90 μl of DMSO. The compound solution was diluted 200-fold with DMEM/high glucose medium. The cell culture plate inoculated on Day 1 was taken out. The medium in the wells was removed by a negative pressure suction device, and the formulated medium containing the compound at each concentration was added respectively to each well at 200 μl/well. The plate was incubated at 37° C. for 72 hours. On Day 5, the medium of the cultured cells was replaced with fresh medium containing the same compound in the same way as Day 2, and then the plate was incubated at 37° C. for 72 hours. On Day 8, the cell culture plate was taken out, centrifuged at 300 g for 3 minutes, and the culture supernatant was collected at 200 μl/well. HBV DNA was extracted from the cell culture supernatant with Qiagen automatic DNA extraction device, and the specific method referred to the instructions of the reagents and instruments. Finally, the extracted DNA was eluted with DNA elution buffer at 100 μl/well. The extracted DNA was subjected to quantitative PCR analysis of HBV DNA using Hepatitis B virus nucleic acid quantitative detection kit (Triplex International Biosciences Co., Ltd.), and the specific method referred to the instruction of the kit. The quantitative standard curve was obtained with the standard sample provided in the kit, and the experiments were performed in parallel. Quantitative conversion of each sample was carried out according to the standard curve. Finally, the EC50 value of the compound was calculated with Graphpad Prism software according to each concentration of the compound and the corresponding DNA value.
# The in vitro activity of the compound of the present invention on inhibiting the HBV DNA replication by inhibiting the assembly of HBV capsid protein was determined by the above experiment.
# [3] = Effect on in vitro proliferation of HepG2 cells (CellTiter-Glo); format: cell-based; details: human; HepG2 cells, 72 hours, CellTiter-Glo
# Experimental: Test Example 2. Effect of the Compound of the Present Invention on In Vitro Proliferation of HepG2 Cells
# HepG2 cells in logarithmic growth phase were taken and digested with trypsin to prepare a cell suspension, which was incubated in a 96-well plate (transparent bottom white 96-well plate, PerkinElmer) at 6,000 cells/well, at 5% carbon dioxide, 37° C. for 16-20 hours. On Day 2, the compound was dissolved in pure DMSO at a concentration of 20 mM. The compound was diluted in 3-fold concentration gradient using an automatic pipetting station (Bravo), 8 concentration points for each compound, and the control well was DMSO. The compound formulated in DMSO at each concentration point was diluted 200-fold with EMEM (containing 10% FBS) medium. The cell culture plate inoculated on Day 1 was taken out. The medium in the wells was removed by a negative pressure suction device, and the formulated medium containing the compound at each concentration was added respectively to each well at 100 μl/well. The plate was incubated at 37° C. for 72 hours. On Day 5, the 96-well cell culture plate was taken out, and freshly formulated CellTiter Glo was added to each well at 100 μl/well. The 96-well plate was left to stand for 5-10 minutes, the bottom was then sealed with a white bottom sealing film (PerkinElmer). The plate was placed in the microplate reader to measure the luminescence signal. The CC50 value of the compound was calculated with Graphpad Prism software according to each concentration of the compound and the corresponding proliferation inhibition signal value.
# The inhibition effect of the compound of the present invention on in vitro proliferation of HepG2 cells was determined by the above experiment.
Structure (SMILES),Vd/F [1],AUC [1],bioavailability [1],CL/F [1],half-life [1],Cmax [1],MRT [1],EC50 [2],Emax [2],CC50 at 72 h [3]
"C[C@H]1Cn2cnc(C(=O)N[C@H](C)C(F)(F)F)c2CN1C(=O)Nc1ccc(F)c(C#N)c1 [Example 11, (S)—N^7-(3-Cyano-4-fluorophenyl)-6-methyl-N^1-((R)-1,1,1-trifluoropropan-2-yl)-5,6-dihydroimidazo[1,5-α]pyrazine-1,7-(8H)-dicarboxamide]",2.89 ± 0.389 L/kg,10900 ± 4520 ng·h/mL,111%,3.53 ± 1.5 mL/min/kg,11.2 ± 5.63 h,597 ± 64 ng/mL,16.3 ± 7.6 h,18 nM,100%,> 100000 nM
"C[C@@H](NC(=O)c1cnn2c1CN(C(=O)Nc1cc(F)c(F)c(F)c1)CC2)C(F)(F)F [Example 4, (R)—N^5-(3,4,5-Trifluorophenyl)-N^3-(1,1,1-trifluoropropan-2-yl)-6,7-dihydropyrazolo[1,5-α]pyrazine-3,5(4H)-dicarboxamide]",3.69 ± 0.532 L/kg,7130 ± 2640 ng·h/mL,120%,5.08 ± 1.48 mL/min/kg,8.8 ± 1.95 h,425 ± 100 ng/mL,13.1 ± 2.5 h,27 nM,100%,> 100000 nM
"C[C@@H]1CN(C(=O)Nc2ccc(F)c(F)c2)Cc2c(C(=O)N[C@H](C)C(F)(F)F)nnn21 [Example 42, (R)—N^5-(3,4-Difluorophenyl)-7-methyl-N^3-((R)-1,1,1-trifluoropropan-2-yl)-6,7-dihydro-[1,2,3]triazolo[1,5-α]pyrazine-3,5(4)-dicarboxamide]",5.96 ± 1.22 L/kg,7380 ± 3180 ng·h/mL,87%,5.3 ± 2.47 mL/min/kg,15.9 ± 8.9 h,433 ± 102 ng/mL,22.1 ± 12.4 h,75 nM,100%,> 100000 nM
"C[C@@H](NC(=O)c1cnn2c1CN(C(=O)Nc1ccc(F)c(F)c1)CC2)C(F)(F)F [Example 2, (R)—N^5-(3,4-Difluorophenyl)-N^3-(1,1,1-trifluoropropan-2-yl)-6,7-dihydropyrazolo[1,5-α]pyrazine-3,5(4H)-dicarboxamide]",2.58 ± 0.638 L/kg,9250 ± 3310 ng·h/mL,107%,4 ± 1.48 mL/min/kg,8.01 ± 2.26 h,661 ± 200 ng/mL,11.5 ± 2.8 h,30 nM,100%,> 100000 nM
"C[C@H]1Cn2ncc(C(=O)N[C@H](C)C(F)(F)F)c2CN1C(=O)Nc1ccc(F)c(F)c1 [Example 7, (S)—N^5-(3,4-Difluorophenyl)-6-methyl-N^3-((R)-1,1,1-trifluoropropan-2-yl)-6,7-dihydropyrazolo[1,5-α]pyrazine-3,5(4H)-dicarboxamide]",1.65 ± 0.174 L/kg,16500 ± 9260 ng·h/mL,98%,2.63 ± 1.46 mL/min/kg,9.72 ± 5.94 h,1080 ± 151 ng/mL,14.1 ± 8 h,38 nM,100%,> 100000 nM
"C[C@@H]1CN(C(=O)Nc2ccc(F)c(C#N)c2)Cc2c(C(=O)N[C@H](C)C(F)(F)F)ncn21 [Example 47, (R)—N^7-(3-Cyano-4-fluorophenyl)-5-methyl-N^1-((R)-1,1,1-trifluoropropan-2-yl)-5,6-dihydroimidazo[1,5-α]pyrazine-1,7(8H)-dicarboxamide]",5.69 ± 2.24 L/kg,7260 ± 3050 ng·h/mL,125%,5.4 ± 2.69 mL/min/kg,13.1 ± 4.3 h,462 ± 94 ng/mL,17.7 ± 6.3 h,82 nM,100%,> 100000 nM
"C[C@@H](NC(=O)c1nnn2c1CN(C(=O)Nc1cc(F)c(F)c(F)c1)CC2)C(F)(F)F [Example 17, (R)—N^5-(3,4,5-Trifluorophenyl)-N^3-(1,1,1-trifluoropropan-2-yl)-6,7-dihydro-[1,2,3]triazolo[1,5-α]pyrazine-3,5(4H)-dicarboxamide]",,,,,,,,70 nM,80%,> 100000 nM
"C[C@H]1Cn2cnc(C(=O)NC3(C)CCC3)c2CN1C(=O)Nc1ccc(F)c(C#N)c1 [Example 46, (S)—N^7-(3-Cyano-4-fluorophenyl)-6-methyl-N^1-(1-methylcyclobutyl)-5,6-dihydroimidazo[1,5-α]pyrazine-1,7(8H)-dicarboxamide]",,,,,,,,65 nM,97%,> 100000 nM
"C[C@H]1Cn2ncc(C(=O)N[C@H](C)C(F)(F)F)c2CN1C(=O)Nc1cc(F)nc(F)c1 [Example 16, (S)—N^5-(2,6-Difluoropyridin-4-yl)-6-methyl-N^3-((R)-1,1,1-trifluoropropan-2-yl)-6,7-dihydropyrazolo[1,5-α]pyrazine-3,5(4H)-dicarboxamide]",,,,,,,,50 nM,100%,> 100000 nM
